# Patent publication US20190269705A1, “METHODS AND MATERIALS FOR TREATING GRAFT VERSUS HOST DISEASE” (Regents of the University of Minnesota, priority 2017, published 2019)
# Test system: Th1 cells
# Assay: ATAC-Seq chromatin accessibility, Th1
# Format: cell-based, mouse
# Details: Th1, 500 nM CB839, day 5
# Experimental: ATAC-Seq: Crude nuclei pellets were isolated as described elsewhere (see, e.g., Buenrostro et al., 2013 Nat Meth. 10(12):1213-1218) with modifications. Briefly, naïve CD4 T cells were skewed to Th1 and Th17 subsets in vitro with vehicle or in the presence of 500 nM CB839. At Day 5, T cells were re-isolated for CD4+ cells using Miltenyi CD4+ negative selection kit (Cat #: 130-104-454). 1×10^5 cells were removed for nuclei extraction in ATAC-Seq lysing buffer. Cells were exposed to Tn5+ adaptor proteins from Nextera DNA for 30 min at 37° C. and immediately placed on ice. Transposed eluate was amplified via PCR using Nextera DNA preparation kit (Illumina, Cat #: FC-121-1030), NEBNext High-fidelity 2× PCR mix (New England Labs, Cat #: M0541), and multiplexed (Illumina, Cat #: FC-121-1011). Samples were purified using Zymo DNA cleanup kit (Cat #: D4011). QC of samples was run on bioanalyzer before being sent for sequencing. RNA-Seq: Th1 and Th17 cells skewed with or without CB839 were isolated as previously described and total RNA extracted (Qiagen RNEasy Mini kit, Cat #: 74104). RNA was sent to VANTAGE core at Vanderbilt University and sequenced on HiSeq 2500. n=3 for each sample was analyzed. Samples were analyzed using the R program DESeq2. GSEA was performed using MSigDB. […]
compound,measurement,value
O=C(Cc1cccc(OC(F)(F)F)c1)Nc1ccc(CCCCc2nnc(NC(=O)Cc3ccccn3)s2)nn1 [CB839],genes with regions of altered chromatin accessibility,more genes with regions of increased accessibility than genes with decreased accessibility
